Active and inactive are the calls of the source.
Experiments:
[1] = target: T1, RNA-binding protein pos-1 (Caenorhabditis elegans, UniProt G5EF15); experiment: disruptors of C. elegans POS-1 RNA interaction – biochemical, fluorescence polarization, dose response (AID 1964);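 note: purified POS-1 fused to maltose binding protein made in E. coli; potency of compounds blocking POS-1 binding to fluorescent RNA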
T1 sequence (G5EF15 whole entry): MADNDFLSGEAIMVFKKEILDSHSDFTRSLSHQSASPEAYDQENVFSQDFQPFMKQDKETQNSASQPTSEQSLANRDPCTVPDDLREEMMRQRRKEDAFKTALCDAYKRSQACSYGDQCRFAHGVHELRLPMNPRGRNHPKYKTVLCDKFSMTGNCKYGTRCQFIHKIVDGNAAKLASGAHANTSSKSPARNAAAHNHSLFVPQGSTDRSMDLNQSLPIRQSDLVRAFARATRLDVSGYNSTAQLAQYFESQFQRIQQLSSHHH

[2] = target: T2, Zinc finger protein mex-5 (Caenorhabditis elegans, UniProt Q9XUB2); experiment: potency of MEX-5 RNA-binding blockers – biochemical, C. elegans, fluorescence polarization, dose response (AID 1960)
T2 sequence (Q9XUB2 whole entry): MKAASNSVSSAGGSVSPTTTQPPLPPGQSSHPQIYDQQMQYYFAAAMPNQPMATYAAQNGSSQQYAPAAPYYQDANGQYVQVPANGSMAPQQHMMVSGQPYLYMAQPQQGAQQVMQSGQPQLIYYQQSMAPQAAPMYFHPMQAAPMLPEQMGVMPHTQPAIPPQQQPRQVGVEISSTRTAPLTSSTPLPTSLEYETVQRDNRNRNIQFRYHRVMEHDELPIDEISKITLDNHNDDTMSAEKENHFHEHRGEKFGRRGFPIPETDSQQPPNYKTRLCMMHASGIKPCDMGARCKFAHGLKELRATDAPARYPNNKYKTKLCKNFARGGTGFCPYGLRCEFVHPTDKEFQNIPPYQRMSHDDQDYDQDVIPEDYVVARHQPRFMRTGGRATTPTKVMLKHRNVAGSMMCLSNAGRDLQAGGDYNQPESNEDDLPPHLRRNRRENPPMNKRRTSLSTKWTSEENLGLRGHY

[3] = tested on: BJ; experiment: BJ-TERT fibroblast viability loss – cell-based, RAS-independent, luminescence, dose response (AID 1933); assay type: functional; conditions: Homo sapiens
[4] = tested on: BJ; experiment: cells; assay type: functional, cell-based; conditions: Homo sapiens
[5] = tested on: BJ; experiment: BJ-TERT-LT-ST fibroblast viability loss – cell-based, RAS-independent, luminescence, dose response (AID 1935); assay type: functional; conditions: Homo sapiens;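 note: BJ fibroblasts immortalized with TERT plus LT and ST oncogenes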
[6] = DRD fibroblast viability loss – cell-based, non-viral oncogenic, luminescence, dose response (AID 1934); assay type: functional; conditions: Homo sapiens
[7] = HEK-293T viability loss after treatment – luminescence, T-cell screen hits, cytotoxicity control for TCR NF-kB inhibitor project, dose response (AID 489026); assay type: functional, cell-based;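 note: cells exposed to compound about 14 hours before the viability readout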
[8] = Trypanosoma cruzi growth suppression in host cells – NIH3T3 host cells, beta-gal luminescence, confirmation (AID 2044); assay type: functional, cell-based;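 note: intracellular parasites grown in NIH/3T3 mouse fibroblasts as host cells; luminescent beta-galactosidase reporter signal from transgenic T. cruzi replicating inside host cells; inhibitors lower the luminescence signal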
[9] = NIH3T3 cell viability loss – ATP luminescence, mouse fibroblasts, counter-screen, dose response (AID 2010); assay type: functional, cell-based;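 note: cells exposed to compound for about 90 hours before reading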
[10] = target: T3, Polyadenylate-binding protein 1 (Homo sapiens, UniProt P11940); experiment: MLLE binding blockers, Cy5 peptide tracer – biochemical, fluorescence polarization, Cy5-PAM2 peptide, secondary, miRNA deadenylation inhibitor project, dose response (AID 602260); assay type: functional; conditions: read-out: IC50_Mean
[11] = target: T3, Polyadenylate-binding protein 1; experiment: MLLE domain peptide-binding blockers, IC50 – biochemical, fluorescence polarization, FITC-PAM2 peptide, dose response (AID 602259); assay type: functional; conditions: read-out: IC50_Mean
[12] = target: T4, Corticotropin-releasing factor receptor 2/Corticotropin-releasing factor-binding protein (Homo sapiens, UniProt P24387+Q13324); experiment: activators of CRF receptor 2 with binding protein – uHTS hits, confirmation (AID 602473); assay type: functional; conditions: read-out: EC50_Mean
T4 sequence (Q13324 whole entry): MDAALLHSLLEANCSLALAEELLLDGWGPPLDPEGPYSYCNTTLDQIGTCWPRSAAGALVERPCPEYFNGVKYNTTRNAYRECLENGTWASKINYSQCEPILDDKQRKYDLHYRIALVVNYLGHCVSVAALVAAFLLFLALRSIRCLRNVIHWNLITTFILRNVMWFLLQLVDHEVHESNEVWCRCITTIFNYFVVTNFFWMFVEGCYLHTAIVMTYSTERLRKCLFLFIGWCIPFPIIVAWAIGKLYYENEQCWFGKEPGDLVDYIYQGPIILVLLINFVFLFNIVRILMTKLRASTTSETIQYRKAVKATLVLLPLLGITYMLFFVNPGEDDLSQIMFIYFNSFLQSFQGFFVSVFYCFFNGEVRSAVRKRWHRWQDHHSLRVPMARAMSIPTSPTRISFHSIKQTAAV
T4 sequence (P24387 whole entry): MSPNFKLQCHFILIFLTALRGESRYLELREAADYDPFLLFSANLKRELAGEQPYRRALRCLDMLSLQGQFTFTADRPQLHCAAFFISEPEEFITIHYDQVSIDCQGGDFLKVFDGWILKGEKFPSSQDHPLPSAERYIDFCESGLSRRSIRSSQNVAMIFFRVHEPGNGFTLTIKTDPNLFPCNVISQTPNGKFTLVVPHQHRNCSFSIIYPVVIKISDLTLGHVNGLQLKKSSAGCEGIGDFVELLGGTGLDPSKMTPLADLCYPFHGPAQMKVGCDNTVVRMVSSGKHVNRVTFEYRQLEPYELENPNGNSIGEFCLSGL

[13] = target: Cytochrome P450 2C19 (Homo sapiens, UniProt P33261); experiment: Cytochrome panel assay with activity outcomes. Panel member name: p450-cyp2c19 Compounds with AC50 equal or less than 10 uM are considered active; assay type: functional; conditions: read-out: AC50
[14] = target: Cytochrome P450 2C9 (Homo sapiens, UniProt P11712)
[15] = target: T5, High affinity choline transporter 1 (Homo sapiens, UniProt Q9GZV3); experiment: human choline transporter blockers, potency – cell-based, 5-point CRC, membrane potential dye, dose response (AID 504840); assay type: functional
T5 sequence (Q9GZV3 whole entry): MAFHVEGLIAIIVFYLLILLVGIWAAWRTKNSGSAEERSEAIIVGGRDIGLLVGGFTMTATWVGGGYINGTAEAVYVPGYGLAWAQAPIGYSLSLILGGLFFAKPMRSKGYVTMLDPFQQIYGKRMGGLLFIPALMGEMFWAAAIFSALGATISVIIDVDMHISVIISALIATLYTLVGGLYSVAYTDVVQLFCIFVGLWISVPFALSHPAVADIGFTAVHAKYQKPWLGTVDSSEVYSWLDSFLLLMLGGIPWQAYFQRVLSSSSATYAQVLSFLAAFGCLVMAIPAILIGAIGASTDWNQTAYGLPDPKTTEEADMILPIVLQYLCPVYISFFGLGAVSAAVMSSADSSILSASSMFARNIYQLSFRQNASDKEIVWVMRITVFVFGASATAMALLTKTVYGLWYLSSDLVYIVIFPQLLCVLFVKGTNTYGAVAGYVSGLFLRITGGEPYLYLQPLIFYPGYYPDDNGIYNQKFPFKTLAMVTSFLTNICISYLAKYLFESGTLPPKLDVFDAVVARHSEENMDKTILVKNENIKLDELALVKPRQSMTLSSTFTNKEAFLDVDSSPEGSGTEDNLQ

[16] = reduction of Shn3 3'UTR-driven luciferase in osteoblasts – cell-based, Clone20 osteoblasts, firefly luciferase, cherry-picked, dose response (AID 624132); assay type: functional;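 note: firefly luciferase luminescence from reporter carrying the Shn3 3'UTR in osteoblasts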
[17] = loss of viability in HepG2 cells – cell-based, CellTiter-Glo, cherry-picked, cytotoxicity control for Shn3 inhibitor project, dose response (AID 624134); assay type: functional
[18] = non-specific 3'UTR reporter inhibition in Clone20-Shn3RL – cell-based, Renilla luciferase, cherry-picked, counter-screen for Shn3 inhibitor project, dose response (AID 624133); assay type: functional
[19] = target: Heat shock protein HSP 90-alpha (Homo sapiens, UniProt P07900); assay type: functional, organism-based
[20] = blockers of bursicon-stimulated LGR2 cAMP reporter – cell-based, HEK293, CRE-luciferase reporter, cherry pick, set 2, dose response (AID 743343); assay type: functional;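 note: transfected cells were stimulated with diluted bursicon conditioned medium after compound addition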
[21] = blockade of melanocortin 4 receptor signaling – cell-based, plate reader, cherry pick, counter-screen for LGR2 antagonist project, dose response (AID 743444); assay type: functional;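 note: transfected HEK 293 cells stimulated with alpha-MSH peptide; potency of inhibitors of the alpha-MSH evoked signal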
[22] = intracellular Trypanosoma cruzi inhibitors in host cells – cell-based, plate reader, cherry-pick samples, set 3, dose response (AID 651818); assay type: functional;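 note: compounds incubated with infected cells for about four days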
[23] = P. falciparum Dd2 growth inhibitors, dose response, SYBR Green, cherry-picked samples (AID 1159567); assay type: functional, cell-based
[24] = toxicity to human hepatoma HepG2 cells – cell-based, cherry-picked samples, cytotoxicity control, dose response (AID 1159577); assay type: functional

T3 sequence (P11940 whole entry, the tested form may be a part): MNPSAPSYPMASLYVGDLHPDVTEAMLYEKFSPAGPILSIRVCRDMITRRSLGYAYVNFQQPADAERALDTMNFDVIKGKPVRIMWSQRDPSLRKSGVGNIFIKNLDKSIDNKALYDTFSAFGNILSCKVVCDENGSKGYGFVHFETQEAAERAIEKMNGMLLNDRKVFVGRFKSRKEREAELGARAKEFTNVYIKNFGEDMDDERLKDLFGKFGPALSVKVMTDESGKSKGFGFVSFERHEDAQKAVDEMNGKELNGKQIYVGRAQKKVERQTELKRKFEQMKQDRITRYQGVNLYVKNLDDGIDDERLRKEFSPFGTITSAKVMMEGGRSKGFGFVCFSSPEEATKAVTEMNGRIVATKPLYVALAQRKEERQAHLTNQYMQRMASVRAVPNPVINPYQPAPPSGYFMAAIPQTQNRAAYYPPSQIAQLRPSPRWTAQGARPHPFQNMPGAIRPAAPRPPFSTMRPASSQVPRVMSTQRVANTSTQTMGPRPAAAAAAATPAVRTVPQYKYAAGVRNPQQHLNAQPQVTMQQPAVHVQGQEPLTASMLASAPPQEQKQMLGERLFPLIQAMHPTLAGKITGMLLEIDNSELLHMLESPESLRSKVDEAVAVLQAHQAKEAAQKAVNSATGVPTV
Sequence of Cytochrome P450 2C19 (P33261 whole entry): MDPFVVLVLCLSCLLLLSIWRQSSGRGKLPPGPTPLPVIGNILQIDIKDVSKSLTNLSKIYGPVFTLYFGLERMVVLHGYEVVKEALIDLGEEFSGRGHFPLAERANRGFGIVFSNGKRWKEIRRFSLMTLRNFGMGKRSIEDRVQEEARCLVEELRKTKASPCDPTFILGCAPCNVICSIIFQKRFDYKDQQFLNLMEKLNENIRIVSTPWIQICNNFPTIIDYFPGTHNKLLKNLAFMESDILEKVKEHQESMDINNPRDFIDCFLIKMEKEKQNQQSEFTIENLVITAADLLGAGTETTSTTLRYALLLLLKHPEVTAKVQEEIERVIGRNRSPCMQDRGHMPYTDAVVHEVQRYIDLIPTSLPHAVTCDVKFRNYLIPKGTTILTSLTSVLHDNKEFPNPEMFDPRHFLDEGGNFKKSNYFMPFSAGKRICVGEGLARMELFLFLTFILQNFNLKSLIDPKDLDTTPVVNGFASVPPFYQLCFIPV
Sequence of Cytochrome P450 2C9 (P11712 whole entry): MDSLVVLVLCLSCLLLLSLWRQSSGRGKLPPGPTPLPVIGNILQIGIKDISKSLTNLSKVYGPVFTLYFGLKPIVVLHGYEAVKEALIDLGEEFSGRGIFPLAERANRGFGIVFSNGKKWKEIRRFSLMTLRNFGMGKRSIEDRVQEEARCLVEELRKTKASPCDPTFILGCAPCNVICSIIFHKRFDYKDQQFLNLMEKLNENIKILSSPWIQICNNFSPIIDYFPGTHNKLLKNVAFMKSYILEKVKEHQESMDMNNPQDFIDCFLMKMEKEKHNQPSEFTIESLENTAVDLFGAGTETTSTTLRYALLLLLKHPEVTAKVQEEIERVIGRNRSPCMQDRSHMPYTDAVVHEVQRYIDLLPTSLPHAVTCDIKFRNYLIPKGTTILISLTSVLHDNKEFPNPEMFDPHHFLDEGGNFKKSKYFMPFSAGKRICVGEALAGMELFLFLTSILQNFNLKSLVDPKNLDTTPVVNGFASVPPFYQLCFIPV

Compound: NC(=O)c1snnc1-c1ccccc1
- EC50 [1]: > 300 µM (not active)
- EC50 [2]: > 300 µM (not active)

Compound: COc1ccccc1NC(=O)Cn1nnc(C(=O)NCc2cccs2)c1N
- EC50 [3]: 1.96 µM (active)
- EC50 [4]: 19.3 µM (active)
- EC50 [5]: 1.41 µM (active)
- EC50 [6]: 1.18 µM (active)
- IC50 [7]: > 80 µM (inactive)

Compound: COc1ccc(/C=C2/C(=O)OCc3cc(OC)c(OC)cc32)cc1
- IC50 [7]: 78.5 µM (inactive)

Compound: CN1Cc2c(N3CCOCC3)nc(SCc3ccccc3)c(C#N)c2CC1(C)C
- EC50 [8]: 620 nM (active)
- EC50 [9]: > 60 µM (not active)
- IC50 [10]: > 66 µM (inactive)
- IC50 [11]: > 66 µM (inactive)
- EC50 [12]: > 53 µM (inactive)

Compound: CCC(=S)/C=C1\Sc2ccc3ccccc3c2N1CCCS(=O)(=O)O
- EC50 [1]: > 300 µM (not active)
- EC50 [2]: > 300 µM (not active)
- AC50 [13]: 28.2 µM (inconclusive)
- AC50 [14]: 20 µM (inconclusive)

Compound: CCCc1ccc(OCc2ccc(C(=O)NCc3cccnc3)o2)c(OC)c1
- IC50 [15]: 5.01 µM (active)

Compound: O=C(Nc1nc(-c2ccccc2)cs1)c1ccc(N2CCOCC2)c([N+](=O)[O-])c1
- EC50 [8]: 895 nM (active)
- EC50 [9]: > 60 µM (inconclusive)
- IC50 [7]: 10.2 µM (active)
- AC50 [16]: 3.75 µM (active)
- AC50 [17]: 1.59 µM (active)
- AC50 [18]: 3.52 µM (active)

Compound: O=C(c1ccc(C[S+]([O-])c2ccccc2Cl)o1)N1CCN(c2ccccn2)CC1 (stereo not given)
- IC50 [7]: > 80 µM (inactive)

Compound: O=C(COC(=O)CCc1c[nH]c(=O)[nH]1)Nc1ccccc1Cl
- EC50 [1]: > 300 µM (not active)
- EC50 [2]: 53.5 µM (active)

Compound: Cc1cc(Cl)ccc1OCCCC(=O)N1CCN(C(=O)c2ccco2)CC1
- IC50 [15]: 2 µM (active)

Compound: O=C(OCC(=O)C12CC3CC(CC(C3)C1)C2)c1ccc(O)cc1
- AC50 [19]: 1.04 µM (active)

Compound: Cc1ccc(NC(=O)CNC(=O)c2cccc(Cl)c2)nc1
- IC50 [15]: 13.1 µM (active)

Compound: CC(C)c1ccc(/C=C(\NC(=O)c2ccccc2)C(=O)NCCCn2ccnc2)cc1
- IC50 [15]: 15.8 µM (active)

Compound: CCCCCCC(Cl)(Cn1ccnc1)c1ccccc1 (stereo not given)
- AC50 [19]: 8.5 µM (active)

Compound: CCCC(=O)N1CCCC(c2cc(C(=O)Nc3ccccc3)no2)C1 (stereo not given)
- AC50 [20]: 1.89 µM (active)
- AC50 [21]: 2.37 µM (active)

Compound: O=C(N/N=C/c1cc(I)cc(I)c1O)c1ccccc1O
- AC50 [22]: 3.17 µM (active)

Compound: C[C@@H]1CN([C@H](C)CO)C(=O)Cc2cc(NC(=O)Nc3ccc(C(F)(F)F)cc3)ccc2O[C@@H]1CN(C)Cc1ccccc1
- AC50 [22]: 1.94 µM (active)

Compound: C[C@H]1CN([C@@H](C)CO)C(=O)c2cc(NC(=O)Nc3ccc(C(F)(F)F)cc3)ccc2O[C@H]1CN(C)Cc1ccc(Oc2ccccc2)cc1
- AC50 [22]: 3.42 µM (active)

Compound: C[C@H](CO)N1C[C@H](C)[C@H](CN(C)Cc2ccc(Cl)c(Cl)c2)Oc2ccc(NC(=O)Nc3ccc4c(c3)OCO4)cc2CC1=O
- AC50 [22]: 6.16 µM (active)

Compound: C[C@@H]1CN([C@H](C)CO)C(=O)c2cccc(NC(=O)Nc3ccccc3)c2O[C@H]1CN(C)Cc1ccc(C(=O)Nc2ccccc2N)cc1
- AC50 [22]: 2.02 µM (active)

Compound: Cc1noc(C)c1NC(=O)Nc1cccc2c1O[C@H](CN(C)Cc1ccc(C(=O)Nc3ccccc3N)cc1)[C@@H](C)CN([C@@H](C)CO)C2=O
- AC50 [22]: 3.76 µM (active)

Compound: C[C@@H]1CN([C@@H](C)CO)C(=O)c2cccc(NC(=O)C3CCCCC3)c2O[C@H]1CN(C)Cc1ccc(Oc2ccccc2)cc1
- AC50 [22]: 1.71 µM (active)

Compound: Cc1ccc(S(=O)(=O)Nc2ccc3c(c2)CC(=O)N([C@H](C)CO)C[C@@H](C)[C@H](CN(C)Cc2ccc(Cl)c(Cl)c2)O3)cc1
- AC50 [22]: 2.04 µM (active)

Compound: C[C@@H]1CN([C@@H](C)CO)C(=O)c2cc(NS(=O)(=O)c3ccc(F)cc3)ccc2O[C@H]1CN(C)Cc1ccc(-c2ccccc2)cc1
- AC50 [20]: 45.7 µM (active)
- AC50 [21]: 20.9 µM (active)

Compound: Oc1c(Cl)cc(Cl)cc1/C=N/c1ccc(Br)cc1
- IC50 [15]: 13.2 µM (active)

Compound: Cc1nn(-c2ccccc2)c(N2CCCC2)c1/C=N/NC(=O)c1cc(-c2cccnc2)nc2ccccc12
- EC50 [1]: > 300 µM (not active)
- EC50 [2]: > 300 µM (not active)
- EC50 [8]: 306 nM (active)
- EC50 [9]: 32.8 µM (active)

Compound: CCS(=O)(=O)N1[C@H](CO)[C@H](c2ccc(C#CCC3CCCC3)cc2)[C@@H]1C#N
- AC50 [23]: 5.64 µM (active)
- AC50 [24]: 62.4 µM (active)

Compound: CN(C)C(=O)c1ccc(-c2ccc3c(c2)[C@@H]2[C@@H](CCN2C(=O)C2CCCC2)[C@H](CO)N3C)cc1
- AC50 [23]: 6.47 µM (active)
- AC50 [24]: > 39 µM (inactive)

Compound: CC(C)NC[C@@H]1[C@@H](c2ccc(C3=CCCCC3)cc2)[C@@H](CO)N1C(=O)CC1CC1
- AC50 [23]: 6.18 µM (active)
- AC50 [24]: 36 µM (active)

From ChEMBL document CHEMBL1201862, “PubChem BioAssay data set” (2004)
